The values below are quoted from earlier work in patent US20110251396A1, “Enantiomeric compositions of cicletanine, alone and in combination with other agents, for the treatment of disease” (Gilead Sciences, Inc., priority 2003, published 2011).

Read-outs that look alike come from different tables or passages of the source.

For one series, the system named is Dahl salt-sensitive rats. The following applies: cicletanine treatment.
For a further series, the system named is hypertensives. The following applies: fell from 128; 150-200 mg/day cicletanine, over 12 months.
For series [1], the system named is patients whose blood pressure had not been normalized. The following applies: cicletanine 50 and 100 mg per day added; all three groups.
Series [2] deals with patients with type 2 diabetes.
Series [3] has as its system T-type voltage-gated plasma membrane calcium channels.

Turning to `Cc1ncc2c(c1O)COC2c1ccc(Cl)cc1` (racemic) [cicletanine], the “hypoglycemic effect of tolbutamide” value (following 7 days of cicletanine 100 mg per day) is “did not change”. For the same molecule, where the note is “single intravenous dose of tolbutamide following 7 days of cicletanine 100 mg per day”, the “peak insulin response to tolbutamide” value is 17.4 mU/L. In the series on Dahl salt-sensitive rats, the “high-density lipoprotein (HDL) cholesterol” value is “increased” and the “low-density lipoprotein (LDL) cholesterol” value is reported as “significantly decreased”. In addition, the average triglyceride levels with hypertensives was 104 mg/dL. For the same molecule, the “patients with normalized blood pressure” value in series [1] is listed as 50%.

`CN(C)C(=N)N=C(N)N` [Metformin]: the “patients with gastrointestinal side effects” value in series [2] (diarrhea, nausea, abdominal pain, metallic taste) is 20% to 30%. In addition, in series [2] (first 6 months of treatment), the weight loss is reported as 2 to 3 kg. For the same molecule, in series [2] (monotherapy), the “decrease of low-density lipoprotein (LDL) cholesterol levels” value is 10% to 15% and the “decrease of plasma triglyceride levels” value was 10% to 15%.

With `COCC(=O)O[C@]1(CCN(C)CCCc2nc3ccccc3[nH]2)CCc2cc(F)ccc2[C@@H]1C(C)C` [mibefradil], in series [3], the “selectivity for blocking T-type over L-type calcium channels” value was 10 to 50 times.

In the case of `CCCCNC(=O)NS(=O)(=O)c1ccc(C)cc1` [tolbutamide], where the note is “single intravenous dose of tolbutamide alone, before cicletanine administration”, the “peak insulin response to tolbutamide” value is recorded as 29.2 mU/L.
